# Read-outs that look alike come from different tables or passages of the source.
# Tests used:
# [1] = test system: drug-resistant breast cancer cells MCF7-R; assay: MDR reversal: cytostatic activity in combination with paclitaxel or doxorubicin; assay type: cell-based, human; settings: for % IC50 reduction (taxoid + Paclitaxel): taxoid 1 μM + paclitaxel
# Method: ^a Treatment consists of concurrent exposure of MCF7R cells to
# reversing agent (1 μM) for 72 h in vitro.
# MCF7 (mammary carcinoma) = assay: Cytotoxicity evaluation (cell growth inhibition, SRB, 72 h); assay type: cell-based; settings: read-out: IC50, growth of human tumor cell line MCF7 (breast)
# Method: (§1) Taxoids, thus synthesized, were evaluated for their cytotoxicity against human tumor cell line, A2780 (ovarian carcinoma), A2780-DX5 (ovarian carcinoma resistant to doxorubicin), MCF7 (mammary carcinoma) or MCF7-R (mammary carcinoma cells resistant to doxorubicin), after 72 hours drug exposure according to the methods of Skehon, et al., "J. Nat. Cancer Inst. 82, 1107, 1990". […] Lower numbers indicate higher potency. The data represent the means values of at least three separate experiments. Lower numbers indicate stronger cytotoxicity.
# (§2) Assessment of cytotoxicity, i.e., cell growth inhibition, was determined according to the methods of Skehan, et al. as discussed in J. Nat. Cancer Inst. 82, 1107, 1990. Briefly, cells were plated between 400 and 1200 cells/well in 96 well plates and incubated at 37° C. for 15-18 h prior to drug addition to allow attachment of cells. Compounds tested were solubilized in 100% DMSO and further diluted in RPMI-1640 containing 10 mM HEPES. Each cell line was treated with 10 concentrations of compounds (5 log range). After a 72 h incubation, […] of ice-cold 50% TCA was added to each well and incubated for 1 h at 4° C. Plates were then washed 5 times with tap water to remove TCA, low-molecular-weight metabolites and serum proteins. Sulforhodamine B (SRB) (0.4%, […]) was added to each well. Following a 5 minute incubation at room temperature, plates were rinsed 5 times with 0.1% acetic acid and air dried. Bound dye was solubilized with 10 mM Tris Base (pH 10.5) for 5 min on a gyratory shaker. Optical density was measured at 570 nm.
# [2] = test system: MCF7-R (mammary carcinoma cells resistant to doxorubicin); assay: as above; assay type: cell-based; settings: read-out: IC50, growth of human tumor cell line MCF7-R (breast)
# Method: as §1, §2
# [3] = test system: A2780-DX5 (ovarian carcinoma resistant to doxorubicin); assay: as above; assay type: cell-based; settings: read-out: IC50, growth of human tumor cell line A2780-DX5 (ovarian)
# Method: as §1, §2
# [4] = test system: A2780 (ovarian carcinoma); assay: as above; assay type: cell-based; settings: read-out: IC50, growth of human tumor cell line A2780 (ovarian)
# Method: as §1, §2
# P-glycoprotein mdr 1a = settings: Taxol-resistant T1 cells; cited from earlier work
# J7 (parent) cells = settings: cited from earlier work
# P-glycoprotein mdr 1b = settings: cited from earlier work
# microtubules = settings: cited from earlier work
# [5] = Homo sapiens, MCF7R, without reversing agent, 72 h, read-out: IC50 of anticancer drug alone
# [6] = Homo sapiens, MCF7, 72 h exposure
# [7] = Homo sapiens, MCF7R, 72 h exposure, doxorubicin-resistant
# [8] = read-out: IC50 (taxoid + Paclitaxel), paclitaxel in presence of taxoid reversing agent (1 μM), 72 h
# [9] = 72 h exposure, doxorubicin-resistant
# [10] = Homo sapiens, 72 h exposure, doxorubicin-resistant
# [11] = Homo sapiens, A2780, 72 h exposure, mean of at least three experiments
# [12] = 72 h exposure, mean of at least three experiments
% IC50 reduction (taxoid + Paclitaxel) ([1]; 72 h) [%],Compound,IC50 (MCF7 (mammary carcinoma); [6]) [µM],"IC50 [2, 7] [µM]",IC50 (MCF7 (mammary carcinoma); 72 h exposure) [µM],"IC50 [2, 9] [µM]",other results
99.8,"CC(=O)O[C@H]1C(=O)[C@]2(C)[C@@H](OC(=O)/C=C/c3ccc(C(=O)c4ccccc4)cc3)C[C@H]3OC[C@@]3(OC(C)=O)[C@H]2[C@H](OC(=O)c2ccccc2)[C@]2(O)C[C@H](O)C(C)=C1C2(C)C [SB-RA-31011, 7-[4-Benzoylcinnamoyl]baccatin III]",11,> 10,,,
99.7,"7,10-Bis[3-(4-benzoylphenyl)prop-2-enoyl]-10-deacetylbaccatin III [SB-RA-4102]",,,> 10,> 10,"IC50 [1, 8]: 0.0027 µM"
96,"CC(=O)O[C@H]1C(=O)[C@]2(C)[C@@H](OC(=O)/C=C/c3ccc4ccccc4c3)C[C@H]3OC[C@@]3(OC(C)=O)[C@H]2[C@H](OC(=O)c2ccccc2)[C@]2(O)C[C@H](O)C(C)=C1C2(C)C [SB-RA-30011, 7-[3-(2-naphthyl)-2-propenoyl]baccatin III]",4.7,8,,,"enhancement of the tumor growth inhibitory activity of doxorubicin ([1]; 1 μM taxoid): 92%; % IC50 reduction (taxoid + Doxorubicin) ([1]; taxoid 1 μM + doxorubicin, 72 h): 92%; IC50 [3, 10]: 6.8 µM; IC50 [4, 11]: 6.3 µM"
99.7,CC(=O)O[C@H]1C(=O)[C@]2(C)[C@@H](OC(=O)/C=C/c3ccc(C(=O)c4ccccc4)cc3)C[C@H]3OC[C@@]3(OC(C)=O)[C@H]2[C@H](OC(=O)c2ccccc2)[C@]2(O)C[C@H](OC(C)=O)C(C)=C1C2(C)C [SB-RA-31012],> 10,> 10,,,
97.5,"CC(=O)O[C@H]1C(=O)[C@]2(C)[C@@H](OC(=O)c3ccc4ccccc4c3)C[C@H]3OC[C@@]3(OC(C)=O)[C@H]2[C@H](OC(=O)c2ccccc2)[C@]2(O)C[C@H](O)C(C)=C1C2(C)C [SB-RA-30001, 7-(Naphthalene-2-carbonyl)baccatin III]",5.3,11,,,

# More lines, now with the values behind:
Compound,% IC50 reduction (taxoid + Paclitaxel) ([1]; 72 h) [%],IC50 (MCF7 (mammary carcinoma); [6]) [µM],"IC50 [2, 7] [µM]",IC50 (MCF7 (mammary carcinoma); 72 h exposure) [µM],"IC50 [2, 9] [µM]",other results
"CC(=O)O[C@H]1C(=O)[C@@]2(C)[C@H]([C@H](OC(=O)c3ccccc3)[C@]3(O)C[C@H](OC(=O)[C@H](O)[C@@H](NC(=O)c4ccccc4)c4ccccc4)C(C)=C1C3(C)C)[C@]1(OC(C)=O)CO[C@@H]1C[C@@H]2O [Paclitaxel, reference compound]",,,,,,"IC50 ([1]; Homo sapiens, MCF7R, read-out: IC50 of paclitaxel, taxoid at 1 or 3 μM (from 860 to 42~1.6)): 0.86 µM; IC50 [1, 5]: 0.86 µM; IC50 (MCF7 (mammary carcinoma); Homo sapiens, MCF7, 72 h): 0.0017 µM; IC50 ([2]; Homo sapiens, MCF7R, 72 h): 0.85 µM"
"COc1cccc2c1C(=O)c1c(O)c3c(c(O)c1C2=O)C[C@@](O)(C(=O)CO)C[C@@H]3O[C@H]1C[C@H](N)[C@H](O)[C@H](C)O1 [Doxorubicin, reference compound]",,,,,,"IC50 [1, 5]: 1.89 µM; IC50 ([3]; Homo sapiens, 72 h): 0.357 µM; IC50 (MCF7 (mammary carcinoma); Homo sapiens, MCF7, 72 h): 0.017 µM; IC50 ([4]; Homo sapiens, A2780, 72 h): 0.005 µM; IC50 ([2]; Homo sapiens, MCF7R, 72 h): 1.89 µM"
CC(=O)O[C@H]1C(=O)[C@@]2(C)[C@H]([C@H](OC(=O)c3ccccc3)[C@]3(O)C[C@H](OC(=O)[C@H](O)[C@@H](NC(=O)CCc4ccc(C(=O)c5ccccc5)cc4)c4ccccc4)C(C)=C1C3(C)C)[C@]1(OC(C)=O)CO[C@@H]1C[C@@H]2O [SB-T-5101],,,,,,binding to P-glycoprotein mdr 1a (P-glycoprotein mdr 1a): binds to both mdr 1a (major) and mdr 1b (minor) in T1 cells; photoaffinity labeling of non-drug resistant cells (J7 (parent) cells): no photoaffinity labeling is observed; binding to P-glycoprotein mdr 1b (P-glycoprotein mdr 1b; Taxol-resistant T1 cells): binds to both mdr 1a (major) and mdr 1b (minor) in T1 cells; binding to P-glycoprotein mdr 1b (P-glycoprotein mdr 1b; vinblastine-resistant V1 cells): only binds to mdr 1b in V1 cells; binding to microtubules (microtubules): binds to microtubules as expected
"CC(=O)O[C@H]1C(=O)[C@]2(C)[C@@H](OC(=O)CCc3ccc4ccccc4c3)C[C@H]3OC[C@@]3(OC(C)=O)[C@H]2[C@H](OC(=O)c2ccccc2)[C@]2(O)C[C@H](O)C(C)=C1C2(C)C [SB-RA-30021, 7-[3-(2-Naphthyl)propanoyl]baccatin III]",96,4.9,5,,,"IC50 [3, 10]: 5.3 µM; IC50 [4, 11]: 5.7 µM"
7-[3-(2-Naphtyl)propanoyl]-13-acetylbaccatin III [SB-RA-30012],99.3,,,> 10,> 10,"IC50 [1, 8]: 0.0058 µM"
"CC(=O)O[C@@]12CO[C@@H]1C[C@H](O)[C@@]1(C)C(=O)[C@H](OC(=O)/C=C/c3ccc(C(=O)c4ccccc4)cc3)C3=C(C)[C@@H](O)C[C@@](O)([C@@H](OC(=O)c4ccccc4)[C@H]21)C3(C)C [SB-RA-4001, 10-[(4-Benzoyl)cinnamoyl]-10-deacetylbaccatin III]",95,8.5,> 10,,,"IC50 [3, 10]: 10 µM; IC50 [4, 11]: 8 µM"
"13-(4-Benzoylcinnamoyl)-7,10-bis(2,2,2-trichloroethoxycarbonyl)baccatin III [SB-RA-110]",,,,> 10,> 10,"IC50 [3, 9]: > 10 µM; IC50 [4, 12]: > 10 µM"
"CC(=O)O[C@@]12CO[C@@H]1C[C@H](O)[C@@]1(C)C(=O)[C@H](O)C3=C(C)[C@@H](OC(=O)/C=C/c4ccc5ccccc5c4)C[C@@](O)([C@@H](OC(=O)c4ccccc4)[C@H]21)C3(C)C [SB-RA-2001, 13-[3-(2-Naphthyl)prop-2-enoyl]-10-deacetylbaccatin III]",,,,2,5,"IC50 [3, 9]: 3.8 µM; IC50 [4, 12]: 2.6 µM"
